Data on two molecules can be found in patent EP0958835A1, “PREVENTIVE/REMEDY FOR FREQUENT URINATION AND URINARY INCONTINENCE” (Kissei Pharmaceutical Co., Ltd., priority 1996, dated 1998).

The test system of this test is human bladder smooth muscle. The experiment in a line: Relaxing effect on resting tension of isolated human bladder smooth muscle strips. Type of test: cell-based. As to conditions: drug added cumulatively about every 5 minutes, 0 % = 10^-5 M forskolin, Figure 1. How it is done: Measurement of the contractile force of human bladder smooth muscle strips (1) Smooth muscle preparations Human bladders were obtained from patients undergoing cystectomy and were carefully dissected free from the surrounding fat and mucosa. Preparations were prepared by cutting the bladder smooth muscle longitudinally into about 1.5 cm in length and about 3 mm in width and used. […] Conditions for measurement; The bathing solution was maintained at 37 °C and gassed with a mixture of 95 % O2 and 5 % CO2. Drug Treatment; The drug was cumulatively added about every 5 minutes. Evaluation of the drug effects; The drug-induced relaxation was evaluated. The tension before the drug treatment is indicated as 100 %, and the tension after treatment with 10^-5 M forskolin which produces maximal bladder relaxation is indicated as 0 %. According to the method described above, the bladder relaxing effects of the following drugs were measured using human bladder smooth muscle.

SMILES strings stand for the structures.

On to `CC(C)(C)NCC(O)COc1cccc2[nH]c(=O)[nH]c12.Cl` (racemic) [CGP-12,177A hydrochloride, (±)-4-[3-[(1,1-dimethylethyl)-amino]-2-hydroxypropoxy]-1,3-dihydro-2H-benzimidazol-2-on hydrochloride], for which the “relaxing effects on bladder smooth muscle” value was “apparent relaxing effects”.

`CC(C)NCC(O)c1ccc(O)c(O)c1` (centres unmarked) [isoproterenol]: the “relaxing effects on bladder smooth muscle” value was “apparent relaxing effects”.
